Structures can show the parent of a compound that is named as a salt.
Test: Oral (sublingual) administration of 5 mg asenapine maleate, plasma AUC and adverse effects
Assay type: in vivo, healthy adult men
Description: Furthermore, in a case where the patch obtained in Example 1 was administered, the incidence proportion of adverse effects on the cardiovascular system in the AUC measurement test was 6%. Note that when 5 mg of asenapine maleate was orally administered (sublingual administration) to the healthy adult men (18 people), the average value of the area under plasma concentration-time curve of the free asenapine for a period between 10 minutes and 72 hours after the administration (AUC0.17-72) was 32,074 pg·hr/mL, the average value of the AUC0.17-72 of the N-desmethyl asenapine was 14,299 pg·hr/mL, and the incidence proportion of adverse effects on the cardiovascular system was 39%.

CN1C[C@@H]2c3ccccc3Oc3ccc(Cl)cc3[C@H]2C1 (relative stereo) [asenapine maleate, trans-5-chloro-2-methyl-2,3,3a,12b-tetrahydro-1H-dibenz[2,3:6,7]oxepino[4,5-c]pyrrole]
AUC0.17-72 of the free asenapine (10 minutes to 72 hours after administration): 32,074 pg·hr/mL
incidence proportion of adverse effects on the cardiovascular system (healthy adult men (18 people)): 39%
